Measured values taken from ChEMBL document CHEMBL1129700, “Utilization of wieland furoxan synthesis for preparation of 4-aryl-1,2,5-oxadiazole-3-yl carbamate derivatives having potent anti-HIV activity” (Bioorg Med Chem Lett, 1996).

Assays:
[1] = Selectivity index based on the ratio of CC50 to EC50; assay type: functional
[2] = tested on: MT4; assay: Tested for 50% cytotoxic concentration based on the reduction of viability in mock-infected MT-4 cells; assay type: functional; settings: Homo sapiens
[3] = tested on: MT4; assay: Tested for 50% effective concentration based on the inhibition of HIV-I induced cytopathic effect in MT-4 cells; assay type: functional, cell-based; settings: Homo sapiens

Compound | SI [1] | CC50 [2] | EC50 [3]
CCCN(C)C(=O)Oc1nsnc1-c1c(Cl)cccc1Cl | 10000 | – | –
Cc1cn([C@H]2C[C@H](N=[N+]=[N-])[C@@H](CO)O2)c(=O)[nH]c1=O [ZIDOVUDINE] | 800 | 3.2 µM | 0.004 µM
CCCN(C)C(=O)Oc1no[n+]([O-])c1-c1c(Cl)cccc1Cl | 72 | 8.6 µM | 0.12 µM
CN(C)C(=O)Oc1nsnc1-c1ccccc1 | 8 | 46.8 µM | 5.6 µM
CCCN(C)C(=O)Oc1no[n+]([O-])c1-c1ccccc1 | 1 | 25 µM | 20 µM
CCCN(C)C(=O)Oc1nonc1-c1ccccc1 | 6.5 | 13 µM | 2 µM
